# Test results published in patent US20160038438A1, “COMBINATION OF NORDIHYDROGUAIARETIC ACID AND AN AMINOGLYCOSIDE” (HELPERBY THERAPEUTICS LIMITED, priority 2013, published 2016).
# Key:
# enterobacteria = details: cited from earlier work
# yeast pathogens = details: against yeast pathogens; cited from earlier work
# [1] = system: log phase methicillin resistant Staphylococcus aureus clinical strain; experiment: Time kill, HT013006 with gentamycin, log phase MRSA clinical strain; format: cell-based
# log phase S. aureus [2] = experiment: Time kill curve, HT013006 alone and with gentamycin, log phase S. aureus; format: cell-based, Staphylococcus aureus
# From the text: HT013006 alone and in combination with gentamycin against log phase S. aureus using time kill curve.
# [3] = system: log phase Staphylococcus aureus gentamycin resistant clinical strain; experiment: Time kill, HT013006 with gentamycin, gentamycin resistant clinical strain; format: cell-based
# Description: • 1. HT013006 at 16 and 8 μg/ml had no activities against log phase MRSA. • 2. […] The minimal concentration of HT013006 was 2 μg/ml when combined with 0.5 and 0.25 μg/ml of gentamycin. • (b) log phase phase Staphylococcus aureus gentamycin resistant clinical strain by time kill (340)
# log phase S. aureus [4] = experiment: Chequerboard method, HT013006 (NDGA) with gentamycin, log phase S. aureus; format: cell-based, Staphylococcus aureus; details: for MIC before combination: drug alone, log phase S. aureus
# Description: Log phase growth of S. aureus was carried out as described in the art. HT013006 in combination with gentamycin against log phase S. aureus using chequerboard method The effects of combination were examined by calculating the fractional inhibitory concentration index (FICI) of each combination, as follows: (MIC of drug A, tested in combination)/(MIC of drug A, tested alone)+(MIC of drug B, tested in combination)/(MIC of drug B, tested alone). The interaction of the combination was defined as showing synergy if the FICI was ≦0.5, no interaction if the FICI was >0.5 but <4.0 and antagonism if the FICI was >4.0.
# [5] = system: log phase Staphylococcus aureus Oxford strain; experiment: Time kill, HT013006 with neomycin, log phase S. aureus Oxford strain; format: cell-based
# Description: Using the methods described in Example 2, HT013006 was tested in combination with neomycin against log phase Staphylococcus aureus Oxford strain over a time period of 24 hours.
# [6] = HT013006 alone at 16, 8, 4 and 2 μg/ml
molecule,measurement,setting,value
"Cc1cn([C@H]2C[C@H](N=[N+]=[N-])[C@@H](CO)O2)c(=O)[nH]c1=O [AZT, zidovudine]",interaction with the aminoglycosides amikacin and gentamycin,enterobacteria; against enterobacteria,additive or synergistic activity
same,effect on bacteria,enterobacteria; some enterobacteria,bactericidal effect
"CC(Cc1ccc(O)c(O)c1)C(C)Cc1ccc(O)c(O)c1 (stereo not shown) [HT013006, nordihydroguaiaretic acid]",effect on amphotericin B activity,yeast pathogens,enhancing the effect of amphotericin B
same,activity in time kill,"[1]; HT013006 alone at 16 and 8 μg/ml, log phase MRSA",no activities
same,minimal concentration of HT013006 in combination,[1]; combined with 0.5 and 0.25 μg/ml of gentamycin,2 µg/mL
same,activity in time kill,log phase S. aureus [2]; [6],no activities
same,activity in time kill,log phase S. aureus [2]; HT013006 alone at 16 and 8 μg/ml,no activities
same,activity in time kill,[3]; [6],no activities
same,minimal concentration of HT013006 which showed enhanced activities,[3]; combined with 4 and 2 μg/ml of gentamycin,2 µg/mL
same,MIC of HT013006 in combination,log phase S. aureus [4]; combined with 0.25 μg/ml of gentamycin,1 µg/mL
same,MIC before combination,log phase S. aureus [4],64 µg/mL
same,activity in time kill,"[5]; HT013006 alone at 16, 8, 4 and 2 μg/ml, 24 hours",no activities
same,minimal concentration of HT013006 which showed maximal enhanced effect,[5]; in combination with neomycin,8 µg/mL
gentamycin [reference compound],activity in time kill,log phase S. aureus [2]; gentamycin 0.0625 μg/ml,no activity
same,activity in time kill,log phase S. aureus [2]; gentamycin 0.125 μg/ml,"inhibition over 8 hours of treatment, then regrowth was seen"
same,regrowth,log phase S. aureus [2]; gentamycin 0.25 μg/ml,regrowth was seen after 4 hours
same,kill,"log phase S. aureus [2]; gentamycin 0.25 μg/ml, at 4 hours of incubation",3 log
same,regrowth,log phase S. aureus [2]; gentamycin 0.5 μg/ml,regrowth was seen after 2 hours
same,kill,"log phase S. aureus [2]; gentamycin 0.5 μg/ml, at 2 hours of incubation",3.5 log
same,activity in time kill,"[3]; gentamycin at 4, 2, 1 and 0.5 ug/ml, strain 17",no activities
same,MIC of gentamycin in combination,log phase S. aureus [4]; combined with 16 μg/ml of HT013006,0.0078 µg/mL
same,MIC before combination,log phase S. aureus [4],0.5 µg/mL
